# From patent publication US20240115541A1, “METHOD FOR TREATING CEREBRAL APOPLEXY AND HYPERBILIRUBINEMIA BY COMPOUND FOR INHIBITING COMBINATION OF BILIRUBIN AND TRPM2 CHANNEL” (SHANGHAI SIXTH PEOPLE'S HOSPITAL, priority 2022, published 2024)
# Key:
# [1] = target: T1, K928A/D1069A double mutant TRPM2 channel (Homo sapiens, UniProt O94759, D1069A/K928A); test: Whole-cell patch-clamp recording, K928A/D1069A double mutant in HEK293T cells; type: cell-based; details: intracellular ADPR 500 μM
# T1 construct: expressed in transfected cells; host or cells: HEK293T cells, Lipofectamine 3000, GFP cDNA co-transfected as a separate marker
# T1 sequence (O94759 whole entry K928A/D1069A): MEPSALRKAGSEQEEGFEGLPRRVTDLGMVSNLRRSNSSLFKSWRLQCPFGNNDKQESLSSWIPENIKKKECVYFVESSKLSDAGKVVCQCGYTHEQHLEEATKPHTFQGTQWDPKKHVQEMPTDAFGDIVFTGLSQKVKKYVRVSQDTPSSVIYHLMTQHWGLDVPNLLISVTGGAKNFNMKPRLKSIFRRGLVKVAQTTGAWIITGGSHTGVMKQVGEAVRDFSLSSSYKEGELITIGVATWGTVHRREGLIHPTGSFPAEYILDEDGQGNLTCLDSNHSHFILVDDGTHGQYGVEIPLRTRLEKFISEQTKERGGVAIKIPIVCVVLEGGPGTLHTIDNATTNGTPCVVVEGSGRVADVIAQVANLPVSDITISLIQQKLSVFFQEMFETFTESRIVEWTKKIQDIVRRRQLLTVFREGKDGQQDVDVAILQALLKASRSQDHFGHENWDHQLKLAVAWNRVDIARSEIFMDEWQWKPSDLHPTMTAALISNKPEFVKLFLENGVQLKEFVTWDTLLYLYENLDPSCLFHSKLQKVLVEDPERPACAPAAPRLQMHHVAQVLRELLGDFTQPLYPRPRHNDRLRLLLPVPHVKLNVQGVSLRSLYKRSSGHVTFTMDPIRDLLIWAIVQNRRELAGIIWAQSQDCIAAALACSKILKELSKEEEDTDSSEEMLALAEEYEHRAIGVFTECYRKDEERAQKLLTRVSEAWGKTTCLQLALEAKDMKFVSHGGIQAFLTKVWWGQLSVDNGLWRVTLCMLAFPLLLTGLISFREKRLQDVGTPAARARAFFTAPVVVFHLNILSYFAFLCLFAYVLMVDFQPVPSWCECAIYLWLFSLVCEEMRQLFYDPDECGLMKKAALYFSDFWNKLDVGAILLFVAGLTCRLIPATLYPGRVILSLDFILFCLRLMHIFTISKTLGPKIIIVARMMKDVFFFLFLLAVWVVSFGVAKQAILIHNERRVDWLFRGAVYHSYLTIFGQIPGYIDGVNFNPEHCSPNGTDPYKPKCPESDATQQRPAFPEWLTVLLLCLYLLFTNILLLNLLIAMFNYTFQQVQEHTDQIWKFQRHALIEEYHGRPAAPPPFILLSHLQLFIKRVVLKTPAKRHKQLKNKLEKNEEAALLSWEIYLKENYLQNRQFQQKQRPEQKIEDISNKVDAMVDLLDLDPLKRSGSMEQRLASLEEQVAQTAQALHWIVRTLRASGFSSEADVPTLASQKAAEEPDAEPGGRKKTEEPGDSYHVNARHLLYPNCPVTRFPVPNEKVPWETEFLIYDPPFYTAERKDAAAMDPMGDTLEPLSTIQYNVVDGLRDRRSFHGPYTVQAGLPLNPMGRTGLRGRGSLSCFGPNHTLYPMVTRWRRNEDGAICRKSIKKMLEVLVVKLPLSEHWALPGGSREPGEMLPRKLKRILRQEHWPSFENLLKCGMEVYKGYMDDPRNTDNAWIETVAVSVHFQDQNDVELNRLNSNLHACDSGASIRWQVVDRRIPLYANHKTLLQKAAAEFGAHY
# Experimental: 3. Cell culture and transfection: Human embryonic kidney 293 (HEK293) cells with tetracycline-inducible expression of human TRPM2 channel (hTRPM2) were cultured in a mixed medium containing DMEM/F-12 and 10% fetal bovine serum as well as blasticidin (50 μg/ml) and zeocin (0.4 mg/ml). The expression of hTRPM2 was induced by substituting […] (1 μg/ml) 24-48 hours before use. TRPM2 channel mutants were transiently expressed in HEK293T cells by transfection with using Lipofectamine 3000. Briefly, HEK293T cells were transiently transfected with cDNAs encoding the mutant hTRPM2 channel. The cDNA for GFP was co-transfected as a marker for identification of the transfected cells for electrophysiological experiments 16-24 hours after transfection. […]
# 4. Whole-cell and ingle-channel patch-clamp recording: the coverslips were placed in a culture dish (35×35 mm, Sorfa) containing HEPES based extracellular solution (ECS) and recorded by patch-clamp technique. […] Each coverslip was recorded only once with different drug exposures. […] The excised patches were voltage-clamped from −80 mV to +80 mV (in 20 mV increasement) to generate the current-voltage (I-V) relationship of single channel currents from which their main conductance was calculated from the slope by linear regression of the mean current amplitude at different potentials. […]
# [2] = target: T2, human TRPM2 channel (hTRPM2) (Homo sapiens, UniProt O94759); test: Single-channel (outside-out) patch-clamp recording, HEK-hTRPM2 cells; type: cell-based; details: FFA applied after bilirubin
# T2 construct: expressed in transfected cells; host or cells: HEK293 cells with tetracycline-inducible expression
# T2 sequence (O94759 whole entry): as the sequence (O94759 whole entry K928A/D1069A) above, with A928K, A1069D counted along it
# Experimental: 1. Extracellular solution (in mM): 145 NaCl, 5.6 KCl, 2 MgCl2, 1.2 CaCl2, 10 HEPES, 10 glucose and pH adjusted to 7.4 by NaOH (290-320 mOsm).
# 2. Pipette solution contains (in mM): 147 NaCl, 1 MgCl2, 1 EGTA and 10 HEPES with pH 7.4 and osmolality 290-320 mOsm.
# 3. Cell culture and transfection: Human embryonic kidney 293 (HEK293) cells with tetracycline-inducible expression of human TRPM2 channel (hTRPM2) were cultured in a mixed medium containing DMEM/F-12 and 10% fetal bovine serum as well as blasticidin (50 μg/ml) and zeocin (0.4 mg/ml). The expression of hTRPM2 was induced by substituting […] (1 μg/ml) 24-48 hours before use. TRPM2 channel mutants were transiently expressed in HEK293T cells by transfection with using Lipofectamine 3000. […]
# 4. Whole-cell and ingle-channel patch-clamp recording: the coverslips were placed in a culture dish (35×35 mm, Sorfa) containing HEPES based extracellular solution (ECS) and recorded by patch-clamp technique. […] Each coverslip was recorded only once with different drug exposures. […] The excised patches were voltage-clamped from −80 mV to +80 mV (in 20 mV increasement) to generate the current-voltage (I-V) relationship of single channel currents from which their main conductance was calculated from the slope by linear regression of the mean current amplitude at different potentials.
# [3] = system: cortical neurons in adult Trpm2+/+ brain slices; details: mouse, 1 h
# Experimental: In this assay, surviving and dead cortical neurons were labeled with calcein-am and propidium-iodide (PI), respectively (FIG. 4K), the specific process was as follows:
# Trpm2^+/+ mice aged 4-8 weeks were anesthetized by intraperitoneal injection of 1% pentobarbital (55 mg/kg). The brain tissue of the mice was then acutely isolated, and brain slices with a thickness of 150 μm were obtained using a vibratome.
# The brain slices were incubated with bilirubin (Bil) and bilirubin+A23 (Bil+A23) for 1 hour at 37° C., adding calcein-am (1 μM) and PI (2 μM) for the last 15 minutes, and then washed for three times before being fixed.
# When the staining was completed, the cells were fixed with 4% paraformaldehyde in a dark container for 40 minutes, and finally confocal imaging was performed. Cell counts were performed using the software of Image-J to calculate the death rate.
smiles,measurement,setting,value
"Nc1ncnc2c1ncn2[C@@H]1O[C@H](COP(=O)(O)OP(=O)(O)OC[C@H]2OC(O)[C@H](O)[C@@H]2O)[C@@H](O)[C@H]1O (stereo partly drawn) [ADPR, ADP-ribose]",activation of K928A/D1069A double mutant currents,[1],perfectly retained the agonist capacity
"O=C(O)c1ccccc1Nc1cccc(C(F)(F)F)c1 [FFA, flufenamic acid]",effect on bilirubin-increased opening probability (Po),[2],reversed
C=CC1=C(C)/C(=C/c2[nH]c(Cc3[nH]c(/C=C4\NC(=O)C(C)=C4C=C)c(C)c3CCC(=O)O)c(CCC(=O)O)c2C)NC1=O [bilirubin],mortality of cortical neurons,[3],60.84±2.13%
